This is an account of results in patent publication US20240228920A1, “Distilled Spirit with modified Alcohol Levels with or without a Functional Ingredient” (priority 2023, published 2024).

In one assay the target is T1, MAO A (Homo sapiens, UniProt P21397).
T1 sequence (P21397 1-527): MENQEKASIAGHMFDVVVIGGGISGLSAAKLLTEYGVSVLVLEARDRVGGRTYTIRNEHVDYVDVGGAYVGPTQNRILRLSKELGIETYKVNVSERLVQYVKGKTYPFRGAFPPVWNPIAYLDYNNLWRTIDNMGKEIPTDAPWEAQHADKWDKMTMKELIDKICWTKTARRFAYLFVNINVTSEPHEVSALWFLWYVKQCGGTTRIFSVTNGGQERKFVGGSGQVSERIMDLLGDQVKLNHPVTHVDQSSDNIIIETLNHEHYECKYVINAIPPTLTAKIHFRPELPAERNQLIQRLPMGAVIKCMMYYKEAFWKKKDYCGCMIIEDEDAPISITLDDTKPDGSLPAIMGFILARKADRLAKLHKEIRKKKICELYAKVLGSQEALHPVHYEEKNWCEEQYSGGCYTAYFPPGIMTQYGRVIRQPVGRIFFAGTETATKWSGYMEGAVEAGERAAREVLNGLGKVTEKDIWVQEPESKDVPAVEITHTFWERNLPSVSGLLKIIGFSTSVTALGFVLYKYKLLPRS
The assay can be described thus: MAO A inhibitory activity assay. The class given is biochemical. The conditions noted are these: terpene at 0.5% (v/v) in Don Julio Añejo (40% ABV) minus in 40% ethanol. On the procedure:
(§1) U.S. […] The contents of this document are incorporated herein by reference, but briefly, methods that include reverse osmosis and low-pressure evaporation to provide retentates with significant concentrations of these inhibitors are described. In addition, details of assay methods for monoamine oxidase activity (and therefore inhibition thereof) and for ethanol content are provided. The effect of compounds on MAOI activity in tequila was evaluated in the experiment from Table 3.

The target in the next assay is T2, MAO B (Homo sapiens, UniProt P27338).
T2 sequence (P27338 1-520): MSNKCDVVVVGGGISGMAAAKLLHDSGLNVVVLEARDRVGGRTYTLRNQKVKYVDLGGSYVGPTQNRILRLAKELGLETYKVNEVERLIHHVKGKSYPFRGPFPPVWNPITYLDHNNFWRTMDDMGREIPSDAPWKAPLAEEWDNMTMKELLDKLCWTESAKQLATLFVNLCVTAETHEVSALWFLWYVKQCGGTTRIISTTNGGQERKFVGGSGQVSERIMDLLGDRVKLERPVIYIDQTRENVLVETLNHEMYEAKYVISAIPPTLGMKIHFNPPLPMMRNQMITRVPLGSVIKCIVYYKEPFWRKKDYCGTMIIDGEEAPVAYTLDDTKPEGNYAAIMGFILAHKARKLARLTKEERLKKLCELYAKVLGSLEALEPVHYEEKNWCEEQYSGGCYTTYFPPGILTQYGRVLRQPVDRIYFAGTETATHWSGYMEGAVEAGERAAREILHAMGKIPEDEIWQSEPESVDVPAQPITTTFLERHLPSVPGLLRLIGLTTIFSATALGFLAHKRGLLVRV
Nature of the assay: MAO B inhibitory activity assay. The class given is biochemical. The conditions noted are these: terpene at 0.5% (v/v) in Don Julio Añejo (40% ABV) minus in 40% ethanol. On the procedure: as §1

On to Geramol, for which, on MAO A, the “Δ % Inhibition MAO A (DJA + terpene) − (ETOH + terpene)” value (from here on “Δ % Inhibition MAO A (DJA + terpene) −”) is listed as 4%. In addition, the “Δ % Inhibition MAO B (DJA + terpene) − (ETOH + terpene)” value (shortened to “Δ % Inhibition MAO B (DJA + terpene) −”) at MAO B amounted to 9%.

As to `CC(C)=CCCC(C)=CC=O` [citral], the “Δ % Inhibition MAO A (DJA + terpene) −” value at MAO A turned out to be 0%. At MAO B, the “Δ % Inhibition MAO B (DJA + terpene) −” value is recorded as 2%.

In the case of `C=CC(=C)CCC=C(C)C` [β-myrcene], on MAO A, the “Δ % Inhibition MAO A (DJA + terpene) −” value is given as 5%. Moreover, on MAO B, the “Δ % Inhibition MAO B (DJA + terpene) −” value was determined as 11%.

On to `C=CCc1ccc(O)c(OC)c1` [eugenol], for which the “Δ % Inhibition MAO A (DJA + terpene) −” value on MAO A was 1%. The “Δ % Inhibition MAO B (DJA + terpene) −” value on MAO B is 8%.

`C=C(C)[C@@H]1CCC2=CCC[C@@H](C)[C@]2(C)C1` [valencene]: the “Δ % Inhibition MAO A (DJA + terpene) −” value on MAO A is on record as 9%. Further, the “Δ % Inhibition MAO B (DJA + terpene) −” value on MAO B amounted to 20%.

As for `CC1=CCC(=C(C)C)CC1` [terpinolene], the “Δ % Inhibition MAO A (DJA + terpene) −” value at MAO A is given as 1%. Moreover, the “Δ % Inhibition MAO B (DJA + terpene) −” value on MAO B amounted to 9%.
